In patent US20240383840A1, “AMINE-N-OXIDE COMPOUNDS” (Karl Franzens Universität Graz, priority 2021, published 2024):

Experiment: Critical micelle concentration (CMC) by Wilhelmy plate method, K100C Force Tensiometer
Assay type: physicochemical
Settings: 25° C., pH 3
Experimental: As a parameter for the surfactant properties of the novel amine-N-oxide compounds, as usual, the critical micelle concentration (CMC), i.e. the concentration of the protonated or cationic form of the surfactants at which micelles can form was used and was determined using a K100C Force Tensiometer from Krüss Scientific according to the Wilhelmy plate method at 25° C. and pH 3. For comparison, dodecyldimethylamine N-oxide (“C1”) was measured under the same conditions.

Structure (SMILES)	CMC value
CCCCCCCCOc1c(C[N+](C)(C)[O-])cc(CC)cc1OC [Compound 1, N,N-dimethyl-1-(5-ethyl-3-methoxy-2-octyloxyphenyl)methanamine N-oxide]	4.1 mM

Same assay, conditions: critical micelle concentration of the protonated or cationic form; Wilhelmy plate method, 25° C., pH 3

Structure (SMILES)	CMC
CCCCCCCCOc1c(C[N+](C)(C)[O-])cc(CC)cc1OC [Compound 1, N,N-dimethyl-1-(5-ethyl-3-methoxy-2-octyloxyphenyl)methanamine N-oxide]	4.1 mmol/L
CCCCCCCCCCOc1c(C[N+](C)(C)[O-])cc(CC)cc1OC [Compound 2, N,N-dimethyl-1-(2-decyloxy-5-ethyl-3-methoxyphenyl)methanamine N-oxide]	570 mmol/L
CCCCCCCCCCCCOc1c(C[N+](C)(C)[O-])cc(CC)cc1OC [Compound 3, N,N-dimethyl-1-(2-dodecyloxy-5-ethyl-3-methoxyphenyl)methanamine N-oxide]	89 mmol/L
CCCCCCCCCCCCCCOc1c(C[N+](C)(C)[O-])cc(CC)cc1OC [Compound 4, N,N-dimethyl-1-(5-ethyl-3-methoxy-2-tetradecyloxyphenyl)methanamine N-oxide]	5.2 mmol/L
CCCCCCCCCCCCCCCCOc1c(C[N+](C)(C)[O-])cc(CC)cc1OC [Compound 5, N,N-dimethyl-1-(5-ethyl-2-hexadecyloxy-3-methoxyphenyl)methanamine N-oxide]	4.0 mmol/L
CCCCCCCCCCCCCCCCCCOc1c(C[N+](C)(C)[O-])cc(CC)cc1OC [Compound 6, N,N-dimethyl-1-(5-ethyl-3-methoxy-2-octadecyloxyphenyl)methanamine N-oxide]	1.3 mmol/L
CCCCCCCCCCCCOc1c(C[N+]2([O-])CCCC2)cc(CC)cc1OC [Compound 7, 1-(2-dodecyloxy-5-ethyl-3-methoxybenzyl)pyrrolidine-1-oxide]	36 mmol/L
CCCCCCCCCCCCOc1c(C[N+]2([O-])CCCCC2)cc(CC)cc1OC [Compound 8, 1-(2-dodecyloxy-5-ethyl-3-methoxybenzyl)piperidine-1-oxide]	130 mmol/L
CCCCCCCCCCCCOc1c(C[N+](C)(C)[O-])cc(CC)cc1C[N+](C)(C)[O-] [Compound 13, 1,1′-(2-dodecyloxy-5-ethyl-1,3-phenylene)-bis(N,N-dimethylmethanamine N-oxide)]	190 mmol/L
CCCCCCCCCCCCCCCCOc1c(C[N+](C)(C)[O-])cc(CC)cc1C[N+](C)(C)[O-] [Compound 14, 1,1′-(5-ethyl-2-hexadecyloxy-1,3-phenylene)-bis(N,N-dimethylmethanamine N-oxide)]	75 mmol/L
CCCCCCCCCCCCCCCCCCOc1c(C[N+](C)(C)[O-])cc(CC)cc1C[N+](C)(C)[O-] [Compound 15, 1,1′-(5-ethyl-2-octadecyloxy-1,3-phenylene)-bis(N,N-dimethylmethanamine N-oxide)]	29 mmol/L
CCCCCCCCCCCC[N+](C)(C)[O-] [Compound C1, dodecyldimethylamine N-oxide, reference compound]	4200 mmol/L

Same assay, conditions: second value of the cell, for (3)*; asterisk not explained; otherwise 25° C., pH 3

Structure (SMILES)	CMC, value marked (3)*
CCCCCCCCCCCCOc1c(C[N+](C)(C)[O-])cc(CC)cc1OC [Compound 3, N,N-dimethyl-1-(2-dodecyloxy-5-ethyl-3-methoxyphenyl)methanamine N-oxide]	19 mmol/L
